Measurements reported in patent US9695155B2, “Herbicidal substituted pyrimidinyloxy benzene compounds” (E. I. DU PONT DE NEMOURS AND COMPANY, priority 2013, dated 2017).

What was measured:
large (Lg) crabgrass = assay: Test A preemergence; assay type: in vivo, Digitaria sanguinalis
In short: (§1)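 Visual injury scored 0–100 (100 = complete control) against untreated controls about 10 days after treatment in a greenhouse. Test chemicals, formulated with surfactant in non-phytotoxic solvent, were sprayed on soil preemergence or on 2-10 cm, one- to two-leaf plants postemergence.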

pigweed [1] = assay: Test A preemergence; assay type: in vivo, Amaranthus retroflexus
In short: as §1

blackgrass [2] = assay: Test C preemergence; assay type: in vivo, Alopecurus myosuroides; conditions: for Blackgrass plant response rating: preemergence, scale 0 (no effect) to 100 (complete control)
In short: (§2)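 Seeds are planted in blended loam soil and sand and treated preemergence, while seedlings in a peat moss/vermiculite medium receive postemergence sprays at 2 to 18 cm height. All plants stay in the greenhouse for 13 to 15 days before visual comparison with controls on a 0–100 scale.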

Italian ryegrass = assay: Test C preemergence; assay type: in vivo, Lolium multiflorum; conditions: for Ryegrass, Italian plant response rating: preemergence, scale 0 (no effect) to 100 (complete control)
In short: as §2

morningglory = assay: Test C preemergence; assay type: in vivo, Ipomoea coccinea; conditions: for Morningglory plant response rating: preemergence, scale 0 (no effect) to 100 (complete control)
In short: as §2

yellow nutsedge [3] = assay: Test C preemergence; assay type: in vivo, Cyperus esculentus; conditions: for Nutsedge, Yellow plant response rating: preemergence, scale 0 (no effect) to 100 (complete control)
In short: as §2

pigweed [4] = assay: Test C preemergence; assay type: in vivo, Amaranthus retroflexus; conditions: for Pigweed plant response rating: preemergence, scale 0 (no effect) to 100 (complete control)
In short: as §2

ragweed = assay: Test C preemergence; assay type: in vivo, Ambrosia elatior; conditions: preemergence, scale 0 (no effect) to 100 (complete control)
In short: as §2

soybean = assay: Test C preemergence; assay type: in vivo, Glycine max; conditions: preemergence, scale 0 (no effect) to 100 (complete control)
In short: as §2

blackgrass [5] = assay: Test C postemergence; assay type: in vivo, Alopecurus myosuroides; conditions: for Plant response rating (0 to 100), Blackgrass: postemergence; for Plant response rating, Blackgrass: Postemergence, scale 0 to 100 (0 no effect, 100 complete control)
In short: as §2

wheat, winter = assay: Test C postemergence; assay type: in vivo, Triticum aestivum; conditions: for Plant response rating (0 to 100), Wheat: postemergence; for Plant response rating, Wheat: Postemergence, scale 0 to 100 (0 no effect, 100 complete control)
In short: as §2

corn = assay: Test C postemergence; assay type: in vivo, Zea mays; conditions: for Plant response rating (0 to 100), Corn: postemergence; for Plant response rating, Corn: Postemergence, scale 0 to 100 (0 no effect, 100 complete control)
In short: as §2

giant foxtail = assay: Test C postemergence; assay type: in vivo, Setaria faberii; conditions: for Plant response rating (0 to 100), Foxtail, Giant: postemergence; for Plant response rating, Foxtail, Giant: Postemergence, scale 0 to 100 (0 no effect, 100 complete control)
In short: as §2

yellow nutsedge [6] = assay: Test C postemergence; assay type: in vivo, Cyperus esculentus; conditions: for Plant response rating (0 to 100), Nutsedge, Yellow: postemergence; for Plant response rating, Nutsedge, Yellow: Postemergence, scale 0 to 100 (0 no effect, 100 complete control)
In short: as §2

barnyardgrass = assay: Test C postemergence; assay type: in vivo, Echinochloa crus-galli; conditions: for Plant response rating (0 to 100), Barnyardgrass: postemergence; for Plant response rating, Barnyardgrass: Postemergence, scale 0 to 100 (0 no effect, 100 complete control)
In short: as §2

wild oat = assay: Test C postemergence; assay type: in vivo, Avena fatua; conditions: for Plant response rating (0 to 100), Oat, Wild: postemergence; for Plant response rating, Oat, Wild: Postemergence, scale 0 to 100 (0 no effect, 100 complete control)
In short: as §2

chickweed = assay: Test C postemergence; assay type: in vivo, Stellaria media; conditions: for Plant response rating (0 to 100), Chickweed: postemergence; for Plant response rating, Chickweed: Postemergence, scale 0 to 100 (0 no effect, 100 complete control)
In short: as §2

[7] = 125 g ai/ha, 0 to 100 scale where 0 is no effect and 100 is complete control
[8] = 500 g ai/ha, 0 to 100 scale, 0 no effect, 100 complete control, approx. 10 days
[9] = Preemergence, 31 g ai/ha, scale 0 to 100, 0 no effect, 100 complete control

N#Cc1cccc(Oc2ncc(F)cn2)c1-n1cc(Cl)cn1 [Compound 73]
Plant response rating, Crabgrass, Large (large (Lg) crabgrass; [7]): 100
Crabgrass, Large plant response rating (large (Lg) crabgrass; [8]): 100
Plant response rating, Pigweed (pigweed [1]; [7]): 100
Pigweed plant response rating (pigweed [1]; [8]): 100
Blackgrass plant response rating (blackgrass [2]; 62 g ai/ha): 80
Blackgrass plant response rating (blackgrass [2]; 125 g ai/ha): 90
Blackgrass plant response rating (blackgrass [2]; 250 g ai/ha): 90
Plant response rating, Blackgrass (blackgrass [2]; [9]): 0
Ryegrass, Italian plant response rating (Italian ryegrass; 62 g ai/ha): 5
Ryegrass, Italian plant response rating (Italian ryegrass; 125 g ai/ha): 55
Ryegrass, Italian plant response rating (Italian ryegrass; 250 g ai/ha): 70
Plant response rating, Ryegrass, Italian (Italian ryegrass; [9]): 0
Morningglory plant response rating (morningglory; 62 g ai/ha): 45
Morningglory plant response rating (morningglory; 125 g ai/ha): 95
Morningglory plant response rating (morningglory; 250 g ai/ha): 98
Plant response rating, Morningglory (morningglory; [9]): 45
Nutsedge, Yellow plant response rating (yellow nutsedge [3]; 62 g ai/ha): 0
Nutsedge, Yellow plant response rating (yellow nutsedge [3]; 125 g ai/ha): 5
Nutsedge, Yellow plant response rating (yellow nutsedge [3]; 250 g ai/ha): 15
Plant response rating, Nutsedge, Yellow (yellow nutsedge [3]; [9]): 0
Pigweed plant response rating (pigweed [4]; 62 g ai/ha): 100
Pigweed plant response rating (pigweed [4]; 125 g ai/ha): 100
Pigweed plant response rating (pigweed [4]; 250 g ai/ha): 100
Plant response rating, Pigweed (pigweed [4]; [9]): 100
Ragweed plant response rating (ragweed; 62 g ai/ha): 75
Ragweed plant response rating (ragweed; 125 g ai/ha): 85
Ragweed plant response rating (ragweed; 250 g ai/ha): 85
Soybean plant response rating (soybean; 62 g ai/ha): 60
Soybean plant response rating (soybean; 125 g ai/ha): 75
Soybean plant response rating (soybean; 250 g ai/ha): 90
Plant response rating (0 to 100), Blackgrass (blackgrass [5]; 125 g ai/ha): 5
Plant response rating (0 to 100), Blackgrass (blackgrass [5]; 250 g ai/ha): 25
Plant response rating, Blackgrass (blackgrass [5]; 31 g ai/ha, 13 to 15 days): 0
Plant response rating, Blackgrass (blackgrass [5]; 62 g ai/ha): 0
Plant response rating (0 to 100), Wheat (wheat, winter; 125 g ai/ha): 0
Plant response rating (0 to 100), Wheat (wheat, winter; 250 g ai/ha): 5
Plant response rating, Wheat (wheat, winter; 31 g ai/ha, 13 to 15 days): 0
Plant response rating, Wheat (wheat, winter; 62 g ai/ha): 0
Plant response rating (0 to 100), Corn (corn; 125 g ai/ha): 10
Plant response rating (0 to 100), Corn (corn; 250 g ai/ha): 10
Plant response rating, Corn (corn; 31 g ai/ha, 13 to 15 days): 5
Plant response rating, Corn (corn; 62 g ai/ha): 5
Plant response rating (0 to 100), Foxtail, Giant (giant foxtail; 125 g ai/ha): 10
Plant response rating (0 to 100), Foxtail, Giant (giant foxtail; 250 g ai/ha): 30
Plant response rating, Foxtail, Giant (giant foxtail; 31 g ai/ha, 13 to 15 days): 0
Plant response rating, Foxtail, Giant (giant foxtail; 62 g ai/ha): 5
Plant response rating (0 to 100), Nutsedge, Yellow (yellow nutsedge [6]; 125 g ai/ha): 5
Plant response rating (0 to 100), Nutsedge, Yellow (yellow nutsedge [6]; 250 g ai/ha): 5
Plant response rating, Nutsedge, Yellow (yellow nutsedge [6]; 31 g ai/ha, 13 to 15 days): 0
Plant response rating, Nutsedge, Yellow (yellow nutsedge [6]; 62 g ai/ha): 0
Plant response rating (0 to 100), Barnyardgrass (barnyardgrass; 125 g ai/ha): 10
Plant response rating (0 to 100), Barnyardgrass (barnyardgrass; 250 g ai/ha): 35
Plant response rating, Barnyardgrass (barnyardgrass; 31 g ai/ha, 13 to 15 days): 0
Plant response rating, Barnyardgrass (barnyardgrass; 62 g ai/ha): 0
Plant response rating (0 to 100), Oat, Wild (wild oat; 125 g ai/ha): 10
Plant response rating (0 to 100), Oat, Wild (wild oat; 250 g ai/ha): 15
Plant response rating, Oat, Wild (wild oat; 31 g ai/ha, 13 to 15 days): 5
Plant response rating, Oat, Wild (wild oat; 62 g ai/ha): 5
Plant response rating (0 to 100), Chickweed (chickweed; 125 g ai/ha): 50
Plant response rating (0 to 100), Chickweed (chickweed; 250 g ai/ha): 80
Plant response rating, Chickweed (chickweed; 31 g ai/ha, 13 to 15 days): 50
Plant response rating, Chickweed (chickweed; 62 g ai/ha): 50
